Experimental findings from a melting point compilation (Tetko et al.; mined from patent text by program, amines drawn as free bases though some values may be those of a salt) are described below.

Residues, ends and D or L forms follow the SMILES beside them. *: point of attachment. Cbz = O=C(OCc1ccccc1)*; Boc = CC(C)(C)OC(=O)*

`CS(=O)(=O)c1ccc(-c2cc(Br)c3cnc(Nc4ccc(N5CCOCC5)cc4)nn23)cc1` had a melting point of 242 to 244 °C.
Under `O=C(CCl)NC(NC(=O)c1ccccc1)C(Cl)(Cl)Cl` (stereo not given) stands 211 to 213 °C.
Under `COc1ccc(-c2cc(=O)n(Cc3ccc(Cl)cc3)nc2-c2ccc(OC)cc2)cc1` stands 124 to 127 °C; under `CC(C)c1nc(-c2ccccc2)c(C(C)C)c(-c2ccc(F)cc2)c1C=O`, 159 to 160 °C; under `COc1ccc([N+](=O)[O-])cc1C(C#N)O[Si](C)(C)C` (stereo not given), 108 to 111 °C.
Under `O=C(N[C@H](Cc1ccc(C(F)(F)F)cc1)[C@@H](O)c1ccoc1)c1ccc(F)c2ccccc12` (racemic) stands 206 to 207 °C; under `CC(C)CCn1ccc(-c2ccc(NC3CCOCC3)cc2)c(Cl)c1=O`, greater than 300 °C; under `CCOC(=O)c1cn(-c2nc(NCc3ccc(OC)cc3)c(F)cc2F)c2c(F)c(F)c(F)c(F)c2c1=O`, 203 to 208 °C.
On to `COc1nc2cc(Cl)c(Cl)c(N)c2nc1OC`, for which the melting point is 182 to 184 °C.
To `COC(=O)C1c2c(C)c(O)c(C)c(C)c2OC1(C)C` (stereo not given) belongs 145 to 146 °C; to `CC1(c2ccc([N+](=O)[O-])cc2)Cc2cc(O)c(Cl)c(Cl)c2C1=O` (stereo not given), 268 to 270 °C.
To `C=CCOC(=O)c1c(-c2ccncc2)[nH]c(-c2ccncc2)c1C` belongs 224 °C.
In the case of `COC(=O)c1ccc(OC)c2c(C(F)(F)F)c(OC)ccc12`, the melting point was in the range of 120 to 123 °C.
To `CCOC(=O)Cc1nnc2c(CC(C)C)nc(-c3ccccc3)cn12` belongs 105 to 107 °C.
Under `CCOC(=O)c1c(O)c2ccc(Cl)cc2c(=O)n1C` stands 109 to 110 °C; under `CCOC(=O)C1CCc2c(sc3ccc(C)cc23)C1` (stereo not given), 68 to 69 °C.
Under `CC(NC(=O)OCc1ccccc1)C(=O)NC(C(=O)NC(CCCCNC(=O)OC(C)(C)C)C(N)=O)C(C)C` (stereo not drawn) (Cbz-Ala-Val-Lys(Boc)-NH2; configuration not given here) stands 214 to 217 °C.
The compound `COC(=O)c1ccc(Cn2c(=O)c3c(N4CCN(C)CC4)cc(Cl)cc3n(Cc3ccccc3)c2=O)cc1` had a melting point of 90 to 94 °C.
To `CSc1nc(N)nc(N2CCc3ccccc3CC2)c1C#N` belongs 164 to 168 °C; to `O=c1ccc(-c2ccccc2O)n[nH]1`, 289 to 302 °C.
Take `CC(=O)Oc1ccc(C(=O)Oc2ccc(OC(=O)c3ccc(OC(C)=O)cc3)cc2)cc1`: the melting point was in the range of 185 to 186 °C.
To `CCCCCC[C@H](C)Oc1ccc(-c2ccc(OC(=O)c3ccccc3)cc2)cc1` belongs 84 °C.
Regarding `CC(C)C(=O)CC(=O)c1ccc(C(=O)CC(=O)C(C)C)cc1`, the melting point is 97 to 97.5 °C.
`CCOC(=O)N1C=CC(c2c(-c3ccccc3)nc3ccc(Cl)nn23)C=N1` (stereo not given) displayed a melting point of 126 to 131 °C.
To `Cc1oc(-c2ccc3ccccc3c2)nc1COc1ccc(C=O)cc1` belongs 163 to 164 °C; to `C[C@H]1[C@H](N)CN1c1c(F)c(N)c2c(=O)c(C(=O)O)cn(C3CC3)c2c1F` (relative stereo), 206 to 210 °C.
To `C#CCOc1ccc(-c2ccccc2NC(=O)C(NS(=O)(=O)CC)C(C)C)cc1OC` (stereo not given) belongs 97 to 103 °C; to `Cn1cc(C(=O)c2ccc(Cl)cc2)cc1C(=O)c1ccc(Cl)nc1`, 150 to 152 °C; to `O=Cc1ccc(-c2cc3c4c(c2)cc(F)n4C(=O)CNC3)cc1`, 212 to 214 °C.
To `O=CCc1c(O)c(Br)cc(F)c1F` belongs 46.5 to 48 °C; to `CC1CC(=Cc2ccccc2)c2nc3cc(N)ccc3c(=O)n21` (stereo not given), 239 to 241 °C; to `O=C(O)c1cc(NC(=O)C(CS)Cc2cccnc2)cs1` (stereo not given), 115 to 118 °C.
Take `COCCOC(=O)Nc1cc(N2CC=CCC2)nc2nc(=O)on12`: the melting point was 195 to 196 °C.
Under `CCOc1cc(C(C)C)c2c(c1)S(=O)(=O)N(COC(=O)c1c(Cl)cccc1Cl)C2=O` stands 140 to 141 °C; under `O=C(O)c1cn(C2CC2)c2nc(N3Cc4cccc(Cl)c4C3)c(F)cc2c1=O`, greater than 300 °C.
`CCOC(=O)C(=NC1CCCCC1)c1cccn1C` yielded a melting point of 35 to 36 °C.
Compound `CC(=O)O[C@@H]1OCC[C@@H]1NC(=O)[C@H](Cc1ccccc1)NC(=O)OCc1ccccc1` displayed a melting point of 175 to 176 °C.
Regarding `COc1cccc(C(=O)Nc2nc(C(=O)c3ccc([N+](=O)[O-])c(OC)c3)n3ccccc23)c1`, the melting point was found to be 167 °C.
To `CC(O)=C1SC(=S)N(c2ccc(Cl)cc2)C1=O` belongs 200 to 205 °C.
Compound `CCCCCCCCCNC(=O)CCCC` had a melting point of 29 to 31 °C.
Under `N#Cc1ccc(C=NO)c(F)c1` stands 179 to 182 °C; under `NC(=O)c1cc(N(Cc2c(F)c(F)c(C(F)(F)F)c(F)c2F)C(=O)C(F)(F)F)ccc1OC(=O)C(F)(F)F`, 179 to 180 °C; under `COC(=O)C(C)CC(=O)C(Cc1ccccc1)NC(=O)c1ccccc1` (stereo not given), 97 to 98.5 °C.
Under `CC1(CO)CCN(c2ccc(C#N)c3ccccc23)CC1` stands 136 to 137 °C; under `NC(=S)c1ccccc1Nc1cccc(C(F)(F)F)c1`, 106 to 108 °C; under `CCOC(=O)c1nc2sc(Br)c([N+](=O)[O-])c2c(=O)[nH]1`, 284 °C.
Under `Fc1ccc(-c2ncn(C3CCNCC3)c2-c2ccnc(Oc3ccc(OCc4ccccc4)cc3)n2)cc1` stands 178 to 179 °C; under `Oc1ccc(-c2nn(CC3CCCCC3)c3c(C(F)(F)F)cccc23)c(O)c1`, 117 to 118 °C.
For the compound `CS(=O)(=O)c1ccc(-n2nc(C(F)(F)F)nc2-c2ccc(Br)cc2)nn1`, the melting point was 174 to 181 °C.
`O=C(NCCO)c1cccc(-c2cccn3cc(Cc4cccc(C(F)(F)F)c4)nc23)c1`: the melting point was in the range of 136 to 137 °C.
To `CCCCC(=O)c1ccc(O)c(Cl)c1Cl` belongs 107 to 110 °C.
On to `CN(C)c1ccc(N(c2ccccc2)C2(c3ccc(N(C)C)cc3)OC(=O)c3ccccc32)cc1` (stereo not given), for which the melting point was in the range of 163 to 166 °C.
Under `CCC(=O)Nc1ccc(C(=O)C=CN(C)C)cc1` stands 161 to 163 °C; under `COc1ccc(CN2C(=O)C(C)(c3cc(N(C)C(=O)C4CCCN4C(C)=O)ccc3Cl)c3cc(Cl)ccc32)c(OC)c1` (stereo not given), 74 °C; under `N#Cc1c(-c2ccccc2)[nH]c(=O)c2cccnc12`, 292 to 295 °C.
Under `Cc1cnc(Cl)c(OCC(O)CNC(C)C)n1` (stereo not given) stands 109 to 110 °C.
To `Cc1c(CN2CCc3c(c4ccccc4n3C)C2=O)ncn1S(=O)(=O)N(C)C` belongs 194 to 196 °C; to `CN(CCOc1ccc(C=C2SC(=O)NC2=O)cc1)c1nc2ccccc2s1`, 219 °C; to `CC(CCCCCOCCc1ccccc1)NCC(O)c1ccc(O)c2[nH]c(=O)ccc12` (stereo not given), 134 to 138 °C.
As to `ON=C(Cc1ccc(Cl)cc1)c1ccc(Cl)cc1Cl`, the melting point was 91 °C.
Under `COc1ccc(N2CCOCC2)c2sc(C(=O)NCC(=O)c3sc4ccccc4c3C)nc12` stands 180 °C.
To `Cc1nc2c(-c3cccc(N4CCN(CCO)CC4)c3)cnn2c(N)c1-c1ccc(F)c(F)c1` belongs 172 to 174 °C; to `CC(C)c1cccc(C(C)C)c1NC(=O)NCC1(Nc2ccc(-c3ccccc3)cc2)CCCC1`, 198 °C; to `COc1c2c(c(OC)c(OC)c1OC)CC(CCCOc1ccc(C(=O)O)cc1)C2`, 160 to 161 °C.
As for `C[C@H](N[C@H]1CC[C@@H](c2ccccc2)CC1)[C@@H](O)c1ccc(O)cc1`, the melting point fell in the range of 199 to 212 °C.
For `COC(=O)[C@]12CN(Cc3ccccc3)C[C@@H]1C(=O)CC[C@@]2(C)c1ccccc1` (racemic), the melting point is 115 °C.
Turning to `Clc1cccc2c1c(Cl)nc1c(-c3nc(C4CC4)no3)ncn12`, the melting point was 238 to 240 °C.
To `CC(C)CNC(=O)CN1CCN(Cc2ccc3c(c2)NC(=O)C(C)O3)CC1` (stereo not given) belongs 150 °C; to `Cc1cn2cccc(OCc3c(Cl)ccc(S(=O)(=O)N4CCC[C@H]4C(=O)NCCCNC(=O)c4ccc(C#N)cc4)c3Cl)c2n1`, 100 to 102 °C.
`Cc1[nH]c(=O)[nH]c1-c1cc(C(C)(C)C)c(O)c(C(C)(C)C)c1` had a melting point greater than 270 °C.
`CN1CCC[C@H]1c1cnc(Cl)cc1C(O)(c1ccc(C(C)(C)C)cc1)c1ccc(C(C)(C)C)cc1` had a melting point of 226 to 230 °C.
Under `O=[N+]([O-])c1ccc(Cn2c(CO)nc3ccccc32)cc1` stands 162 to 165 °C.
To `Cn1c2cc(C(F)(F)F)ccc2c2oc(C(=O)Cl)cc21` belongs 155 to 156 °C; to `CCOC(=O)C1=C(c2cccs2)Nc2n[nH]cc2C1c1ccccc1Cl` (stereo not given), 200 °C; to `O=C1C(=Cn2ccnc2)C(c2ccc(Cl)cc2)c2ccc(Cl)cc21` (stereo not given), 204 to 205 °C.
To `CC(=O)OC(CF)c1cccnc1S(N)(=O)=O` (stereo not given) belongs 127 to 129 °C; to `Oc1ccc(N2CCN(c3nc4ccccc4o3)CC2)cc1`, 161 to 163 °C.
On to `O=C(O)C(=O)c1ccc(OCCCCCCCCCCCCOc2ccccc2)cc1`, for which the melting point was 98 to 100 °C.
Under `Cc1cc(C2CCCC2)c(O)c(C2CCCC2)c1` stands 78 °C; under `C=C(C)C1=CC(C)(C)Oc2c(OCC)cc(Cc3cnc(N)nc3N)cc21`, 188 to 189 °C; under `CCC1CCCCc2c1oc(=O)c(C(c1ccccc1)C1CC1)c2O` (stereo not given), 63 to 71 °C.
Under `CC(C)[C@H](NC(=O)c1ccccc1)C(=O)NCC(=O)O` stands 190 to 191 °C; under `O=[N+]([O-])c1ccccc1C(Cl)Cl`, 25.6 to 26.7 °C; under `CC(C)(C)OC(=O)Nc1ccc(-c2ccc(-c3ccccc3)cc2)cc1NC(=O)CC(=O)c1cccc(C#N)c1`, 214 to 216 °C.
To `O=C1OC(=O)c2cc(C(F)(F)F)ccc21` belongs 54 °C.

What is called melting point is the temperature, or range, at which the solid turns liquid.
